Experimental data taken from BindingDB's records for doi:10.1016/s0960-894x(02)00300-1 (University of Illinois At Chicago, 2002).

What follows are compounds tested against T1, Dimer of Gag-Pol polyprotein [501-599,Q508K,L534I,L564I,C568A,C596A] (Human immunodeficiency virus 1, UniProt P03367, C568A/C596A/L534I/L564I/Q508K) (assay: Protease Inhibition Assay). Settings: pH 6.4; 25 °C.
T1 construct: 501-599
Description: The Ki values were determined using fluorogenic substrate, 2-(aminobenzoyl)-Thr-Ile-Nle-Phe(p-NO2)-Gln-ArgNH2. A standard curve relating changes in fluorescent intensity to changes in concentration of product was used to convert fluorescent changes into molar velocities. The amount of cleavage was determined by HPLC.
`O=C(N[C@@H](Cc1ccccc1)[C@H](O)CN1CCCCCCCCC=CCC(c2ccccc2)OC1=O)O[C@H]1CO[C@H]2OCC[C@H]21` (stereo partly drawn) [(3R,3aS,6aR)-hexahydrofuro[2,3-b]furan-3-yl N-[(2S,3R)-3-hydroxy-4-(2-oxo-15-phenyl-1-oxa-3-azacyclopentadec-12-en-3-yl)-1-phenylbutan-2-yl]carbamate] showed a Ki of 167 nM. `C=CCCCCCCCCN(C[C@@H](O)[C@H](Cc1ccccc1)NC(=O)O[C@H]1CO[C@H]2OCC[C@H]21)C(=O)OCCC=C` [but-3-en-1-yl N-[(2R,3S)-3-({[(3R,3aS,6aR)-hexahydrofuro[2,3-b]furan-3-yloxy]carbonyl}amino)-2-hydroxy-4-phenylbutyl]-N-(dec-9-en-1-yl)carbamate] was tested, and the Ki was greater than 1000 nM. In the case of `CC1CC=CCCCCCCCCOC(=O)N1C[C@@H](O)[C@H](Cc1ccccc1)NC(=O)O[C@H]1CO[C@H]2OCC[C@H]21` (stereo partly drawn) [(3R,3aS,6aR)-hexahydrofuro[2,3-b]furan-3-yl N-[(2S,3R)-3-hydroxy-4-(4-methyl-2-oxo-1-oxa-3-azacyclopentadec-6-en-3-yl)-1-phenylbutan-2-yl]carbamate], the Ki is reported as 53 nM. Compound `C=CCCCCCCC(OC(=O)N(CCCCC=C)C[C@@H](O)[C@H](Cc1ccccc1)NC(=O)O[C@H]1CO[C@H]2OCC[C@H]21)c1ccccc1` (stereo partly drawn) [(3R,3aS,6aR)-hexahydrofuro[2,3-b]furan-3-yl N-[(2S,3R)-4-[hex-5-en-1-yl({[(1-phenylnon-8-en-1-yl)oxy]carbonyl})amino]-3-hydroxy-1-phenylbutan-2-yl]carbamate] has a Ki of 444 nM. `O=C(N[C@@H](Cc1ccccc1)[C@H](O)CN1CCCCCCCCCCC(c2ccccc2)OC1=O)O[C@H]1CO[C@H]2OCC[C@H]21` (stereo partly drawn) [(3R,3aS,6aR)-hexahydrofuro[2,3-b]furan-3-yl N-[(2S,3R)-3-hydroxy-4-(2-oxo-14-phenyl-1-oxa-3-azacyclotetradecan-3-yl)-1-phenylbutan-2-yl]carbamate] gave a Ki of 189 nM. `O=C(N[C@@H](Cc1ccccc1)[C@H](O)CN1C/C=C\CCCCCCCC(c2ccccc2)OC1=O)O[C@H]1CO[C@H]2OCC[C@H]21` (stereo partly drawn) [(3R,3aS,6aR)-hexahydrofuro[2,3-b]furan-3-yl N-[(2S,3R)-3-hydroxy-4-[(5Z)-2-oxo-14-phenyl-1-oxa-3-azacyclotetradec-5-en-3-yl]-1-phenylbutan-2-yl]carbamate] was tested, and the Ki was 229 nM. For `C=CCCCCCCCCN(C[C@@H](O)[C@H](Cc1ccccc1)NC(=O)O[C@H]1CO[C@H]2OCC[C@H]21)C(=O)OC(CC=C)c1ccccc1` (stereo partly drawn) [(3R,3aS,6aR)-hexahydrofuro[2,3-b]furan-3-yl N-[(2S,3R)-4-[dec-9-en-1-yl({[(1-phenylbut-3-en-1-yl)oxy]carbonyl})amino]-3-hydroxy-1-phenylbutan-2-yl]carbamate], the Ki was greater than 1000 nM. `C=CCCCCCCCCOC(=O)N(CC=C)C[C@@H](O)[C@H](Cc1ccccc1)NC(=O)O[C@H]1CO[C@H]2OCC[C@H]21` [dec-9-en-1-yl N-[(2R,3S)-3-({[(3R,3aS,6aR)-hexahydrofuro[2,3-b]furan-3-yloxy]carbonyl}amino)-2-hydroxy-4-phenylbutyl]-N-(prop-2-en-1-yl)carbamate] showed a Ki greater than 1000 nM. Work on `O=C(N[C@@H](Cc1ccccc1)[C@H](O)CN1CCCCCCCCCCCCC(c2ccccc2)OC1=O)O[C@H]1CO[C@H]2OCC[C@H]21` (stereo partly drawn) [(3R,3aS,6aR)-hexahydrofuro[2,3-b]furan-3-yl N-[(2S,3R)-3-hydroxy-4-(2-oxo-16-phenyl-1-oxa-3-azacyclohexadecan-3-yl)-1-phenylbutan-2-yl]carbamate] yielded a Ki of 268 nM. Compound `CC1CC=CCCCCCCCOC(=O)N(C[C@@H](O)[C@H](Cc2ccccc2)NC(=O)O[C@H]2CO[C@H]3OCC[C@H]32)C1` (stereo partly drawn) [(3R,3aS,6aR)-hexahydrofuro[2,3-b]furan-3-yl N-[(2S,3R)-3-hydroxy-4-(5-methyl-2-oxo-1-oxa-3-azacyclopentadec-7-en-3-yl)-1-phenylbutan-2-yl]carbamate] has a Ki of 11 nM. With `O=C(N[C@@H](Cc1ccccc1)[C@H](O)CN1CCCCCCCCCCCCOC1=O)O[C@H]1CO[C@H]2OCC[C@H]21` [(3R,3aS,6aR)-hexahydrofuro[2,3-b]furan-3-yl N-[(2S,3R)-3-hydroxy-4-(2-oxo-1-oxa-3-azacyclopentadecan-3-yl)-1-phenylbutan-2-yl]carbamate] the Ki was 14 nM. Work on `CC1CCCCCCCCCCOC(=O)N(C[C@@H](O)[C@H](Cc2ccccc2)NC(=O)O[C@H]2CO[C@H]3OCC[C@H]32)C1` (stereo partly drawn) [(3R,3aS,6aR)-hexahydrofuro[2,3-b]furan-3-yl N-[(2S,3R)-3-hydroxy-4-(5-methyl-2-oxo-1-oxa-3-azacyclopentadecan-3-yl)-1-phenylbutan-2-yl]carbamate] yielded a Ki of 6.1 nM. For `O=C(N[C@@H](Cc1ccccc1)[C@H](O)CN1CCCCC=CCCCCCCC(c2ccccc2)OC1=O)O[C@H]1CO[C@H]2OCC[C@H]21` (stereo partly drawn) [(3R,3aS,6aR)-hexahydrofuro[2,3-b]furan-3-yl N-[(2S,3R)-3-hydroxy-4-(2-oxo-16-phenyl-1-oxa-3-azacyclohexadec-8-en-3-yl)-1-phenylbutan-2-yl]carbamate], the Ki was 162 nM. `C=CCCCCCCCCOC(=O)N(C[C@@H](O)[C@H](Cc1ccccc1)NC(=O)O[C@H]1CO[C@H]2OCC[C@H]21)C(C)CC=C` (stereo partly drawn) [dec-9-en-1-yl N-[(2R,3S)-3-({[(3R,3aS,6aR)-hexahydrofuro[2,3-b]furan-3-yloxy]carbonyl}amino)-2-hydroxy-4-phenylbutyl]-N-(pent-4-en-2-yl)carbamate] gave a Ki greater than 1000 nM. `CC1CCCCCCCCCCCOC(=O)N1C[C@@H](O)[C@H](Cc1ccccc1)NC(=O)O[C@H]1CO[C@H]2OCC[C@H]21` (stereo partly drawn) [(3R,3aS,6aR)-hexahydrofuro[2,3-b]furan-3-yl N-[(2S,3R)-3-hydroxy-4-(4-methyl-2-oxo-1-oxa-3-azacyclopentadecan-3-yl)-1-phenylbutan-2-yl]carbamate] showed a Ki of 30 nM. Work on `C=CCCCCCCCOC(=O)N(CC(C)CC=C)C[C@@H](O)[C@H](Cc1ccccc1)NC(=O)O[C@H]1CO[C@H]2OCC[C@H]21` (stereo partly drawn) [non-8-en-1-yl N-[(2R,3S)-3-({[(3R,3aS,6aR)-hexahydrofuro[2,3-b]furan-3-yloxy]carbonyl}amino)-2-hydroxy-4-phenylbutyl]-N-(2-methylpent-4-en-1-yl)carbamate] yielded a Ki greater than 1000 nM. With `O=C(N[C@@H](Cc1ccccc1)[C@H](O)CN1C/C=C\CCCCCCCCOC1=O)O[C@H]1CO[C@H]2OCC[C@H]21` [(3R,3aS,6aR)-hexahydrofuro[2,3-b]furan-3-yl N-[(2S,3R)-3-hydroxy-4-[(5Z)-2-oxo-1-oxa-3-azacyclotetradec-5-en-3-yl]-1-phenylbutan-2-yl]carbamate] the Ki was 125 nM. `O=C(N[C@@H](Cc1ccccc1)[C@H](O)CN1CCCCCCCCC=CCCOC1=O)O[C@H]1CO[C@H]2OCC[C@H]21` [(3R,3aS,6aR)-hexahydrofuro[2,3-b]furan-3-yl N-[(2S,3R)-3-hydroxy-4-(2-oxo-1-oxa-3-azacyclopentadec-12-en-3-yl)-1-phenylbutan-2-yl]carbamate] gave a Ki of 88 nM. For `C=CCCCCCCCC(OC(=O)N(CC=C)C[C@@H](O)[C@H](Cc1ccccc1)NC(=O)O[C@H]1CO[C@H]2OCC[C@H]21)c1ccccc1` (stereo partly drawn) [(3R,3aS,6aR)-hexahydrofuro[2,3-b]furan-3-yl N-[(2S,3R)-3-hydroxy-1-phenyl-4-({[(1-phenyldec-9-en-1-yl)oxy]carbonyl}(prop-2-en-1-yl)amino)butan-2-yl]carbamate], the Ki was greater than 1000 nM. In the case of `O=C(N[C@@H](Cc1ccccc1)[C@H](O)CN1CCCCCCCCCCCOC1=O)O[C@H]1CO[C@H]2OCC[C@H]21` [(3R,3aS,6aR)-hexahydrofuro[2,3-b]furan-3-yl N-[(2S,3R)-3-hydroxy-4-(2-oxo-1-oxa-3-azacyclotetradecan-3-yl)-1-phenylbutan-2-yl]carbamate], the Ki is reported as 80 nM. Compound `CC(C)(C)NC(=O)[C@@H]1C[C@@H]2CCCC[C@@H]2CN1C[C@@H](O)[C@H](Cc1ccccc1)NC(=O)O[C@H]1CO[C@H]2OCC[C@H]21` [(3R,3aS,6aR)-hexahydrofuro[2,3-b]furan-3-yl N-[(2S,3R)-4-[(3S,4aS,8aS)-3-(tert-butylcarbamoyl)-decahydroisoquinolin-2-yl]-3-hydroxy-1-phenylbutan-2-yl]carbamate] has a Ki of 2 nM. `O=C(N[C@@H](Cc1ccccc1)[C@H](O)CN1CCCCCCCCCCCC(c2ccccc2)OC1=O)O[C@H]1CO[C@H]2OCC[C@H]21` (stereo partly drawn) [(3R,3aS,6aR)-hexahydrofuro[2,3-b]furan-3-yl N-[(2S,3R)-3-hydroxy-4-(2-oxo-15-phenyl-1-oxa-3-azacyclopentadecan-3-yl)-1-phenylbutan-2-yl]carbamate] gave a Ki of 357 nM.
